Test results published in patent US11447466B2, “Substituted indole compounds useful as inhibitors of TLR7/8/9” (BRISTOL-MYERS SQUIBB COMPANY, priority 2017, dated 2022).

Assays:
Format in all cases: cell-based
[1] = target: T1, human TLR7 (Homo sapiens, UniProt Q9NYK1); test: TLR7 inhibition reporter assay (HEK-Blue SEAP reporter, gardiquimod stimulation); details: HEK-Blue cells overexpressing human TLR7, SEAP reporter, gardiquimod 7.5 μM, 22 hour incubation
T1 construct: host or cells: HEK-Blue cells
T1 sequence (Q9NYK1 27-1049): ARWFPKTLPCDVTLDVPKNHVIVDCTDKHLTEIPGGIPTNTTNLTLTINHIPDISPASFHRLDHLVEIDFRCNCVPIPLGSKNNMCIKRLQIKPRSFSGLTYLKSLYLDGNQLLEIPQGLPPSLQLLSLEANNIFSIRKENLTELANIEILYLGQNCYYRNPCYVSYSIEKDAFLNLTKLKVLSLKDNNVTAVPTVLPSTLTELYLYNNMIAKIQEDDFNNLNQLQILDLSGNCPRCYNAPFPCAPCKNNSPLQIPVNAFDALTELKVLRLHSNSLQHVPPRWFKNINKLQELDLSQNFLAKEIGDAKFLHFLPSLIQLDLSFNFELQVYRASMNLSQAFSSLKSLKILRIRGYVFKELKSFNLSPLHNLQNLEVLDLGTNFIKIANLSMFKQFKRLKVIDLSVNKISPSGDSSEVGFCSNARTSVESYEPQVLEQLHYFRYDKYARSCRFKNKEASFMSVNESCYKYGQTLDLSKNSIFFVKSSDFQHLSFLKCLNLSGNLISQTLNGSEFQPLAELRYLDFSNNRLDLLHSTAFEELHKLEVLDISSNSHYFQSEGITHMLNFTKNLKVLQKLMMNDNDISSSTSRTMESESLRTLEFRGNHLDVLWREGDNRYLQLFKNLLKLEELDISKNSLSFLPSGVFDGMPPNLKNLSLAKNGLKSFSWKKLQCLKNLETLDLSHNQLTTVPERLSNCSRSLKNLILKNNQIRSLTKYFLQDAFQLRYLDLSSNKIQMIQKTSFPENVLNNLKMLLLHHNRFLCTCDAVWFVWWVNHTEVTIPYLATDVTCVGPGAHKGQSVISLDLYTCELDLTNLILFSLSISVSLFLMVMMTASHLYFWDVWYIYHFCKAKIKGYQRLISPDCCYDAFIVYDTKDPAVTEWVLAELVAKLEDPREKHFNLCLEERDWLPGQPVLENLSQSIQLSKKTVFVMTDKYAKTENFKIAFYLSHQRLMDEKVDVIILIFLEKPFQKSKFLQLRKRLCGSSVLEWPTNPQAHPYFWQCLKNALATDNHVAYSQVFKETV
In short: (§1)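 Screening used HEK-Blue cells overexpressing one human TLR (7, 8 or 9) and an IFN-β minimal promoter–NF-κB/AP-1 SEAP construct. Stimulation lasted 22 h at 37 °C with receptor-specific agonist: gardiquimod, R848 or ODN2006 at 7.5 μM, 15.9 μM and 5 nM.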

[2] = target: T2, human TLR8 (Homo sapiens, UniProt Q9NR97); test: TLR8 inhibition reporter assay (HEK-Blue SEAP reporter, R848 stimulation); details: HEK-Blue cells overexpressing human TLR8, SEAP reporter, R848 15.9 μM, 22 hour incubation
T2 construct: host or cells: HEK-Blue cells
T2 sequence (Q9NR97 27-1041): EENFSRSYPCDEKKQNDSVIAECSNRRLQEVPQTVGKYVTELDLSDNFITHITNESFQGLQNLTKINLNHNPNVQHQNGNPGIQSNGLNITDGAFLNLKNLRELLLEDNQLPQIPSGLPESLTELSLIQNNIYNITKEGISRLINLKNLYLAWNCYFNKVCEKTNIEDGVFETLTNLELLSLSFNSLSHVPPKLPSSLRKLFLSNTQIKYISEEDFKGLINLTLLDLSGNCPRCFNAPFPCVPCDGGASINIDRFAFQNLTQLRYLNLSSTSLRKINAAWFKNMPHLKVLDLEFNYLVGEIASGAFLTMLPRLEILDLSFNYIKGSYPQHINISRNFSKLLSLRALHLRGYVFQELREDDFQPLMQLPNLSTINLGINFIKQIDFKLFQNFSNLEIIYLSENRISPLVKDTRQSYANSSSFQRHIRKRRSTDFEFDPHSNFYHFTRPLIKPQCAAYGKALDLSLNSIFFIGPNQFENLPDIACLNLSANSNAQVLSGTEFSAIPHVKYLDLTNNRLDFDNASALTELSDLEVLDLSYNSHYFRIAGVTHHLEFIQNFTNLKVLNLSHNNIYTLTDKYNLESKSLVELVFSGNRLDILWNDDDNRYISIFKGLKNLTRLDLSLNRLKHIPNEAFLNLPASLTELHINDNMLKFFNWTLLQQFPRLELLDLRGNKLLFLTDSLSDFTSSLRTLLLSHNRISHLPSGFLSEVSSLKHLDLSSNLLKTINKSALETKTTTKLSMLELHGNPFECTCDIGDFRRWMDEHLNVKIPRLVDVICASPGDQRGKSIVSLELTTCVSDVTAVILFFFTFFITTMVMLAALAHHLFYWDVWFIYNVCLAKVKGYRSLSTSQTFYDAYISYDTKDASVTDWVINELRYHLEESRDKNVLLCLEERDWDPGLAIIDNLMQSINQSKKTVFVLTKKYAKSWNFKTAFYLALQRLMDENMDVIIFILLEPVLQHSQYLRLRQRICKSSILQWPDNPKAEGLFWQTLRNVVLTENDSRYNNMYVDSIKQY
In short: as §1

[3] = target: T3, human TLR9 (Homo sapiens, UniProt Q9NR96); test: TLR9 inhibition reporter assay (HEK-Blue SEAP reporter, ODN2006 stimulation); details: HEK-Blue cells overexpressing human TLR9, SEAP reporter, ODN2006 5 nM, 22 hour incubation
T3 construct: host or cells: HEK-Blue cells
T3 sequence (Q9NR96 26-1032): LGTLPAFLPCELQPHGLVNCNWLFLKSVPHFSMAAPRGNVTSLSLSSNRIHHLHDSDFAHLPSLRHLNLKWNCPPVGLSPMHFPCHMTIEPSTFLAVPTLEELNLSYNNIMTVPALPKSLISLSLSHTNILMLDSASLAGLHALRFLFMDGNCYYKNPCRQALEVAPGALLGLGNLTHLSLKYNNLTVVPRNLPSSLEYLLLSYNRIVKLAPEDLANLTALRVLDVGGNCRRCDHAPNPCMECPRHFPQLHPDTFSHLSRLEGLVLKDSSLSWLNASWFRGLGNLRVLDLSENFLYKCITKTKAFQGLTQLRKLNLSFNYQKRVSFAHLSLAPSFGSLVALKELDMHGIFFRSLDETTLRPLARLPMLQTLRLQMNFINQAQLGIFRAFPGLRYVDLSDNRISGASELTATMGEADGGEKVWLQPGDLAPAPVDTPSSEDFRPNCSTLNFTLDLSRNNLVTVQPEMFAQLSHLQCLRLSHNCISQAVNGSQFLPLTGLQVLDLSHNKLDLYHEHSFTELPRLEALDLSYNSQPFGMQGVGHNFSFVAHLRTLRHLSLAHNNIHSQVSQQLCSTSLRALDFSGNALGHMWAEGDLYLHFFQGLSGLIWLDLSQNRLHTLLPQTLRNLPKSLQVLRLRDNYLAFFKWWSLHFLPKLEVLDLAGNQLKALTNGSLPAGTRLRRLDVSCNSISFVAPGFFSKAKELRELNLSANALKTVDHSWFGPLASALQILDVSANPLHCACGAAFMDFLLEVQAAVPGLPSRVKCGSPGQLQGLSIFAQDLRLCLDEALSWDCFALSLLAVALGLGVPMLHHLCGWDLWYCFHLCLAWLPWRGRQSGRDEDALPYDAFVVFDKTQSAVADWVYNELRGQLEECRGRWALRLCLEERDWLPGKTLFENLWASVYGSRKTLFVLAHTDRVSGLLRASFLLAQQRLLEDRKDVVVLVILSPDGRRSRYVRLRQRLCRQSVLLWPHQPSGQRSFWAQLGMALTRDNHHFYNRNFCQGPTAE
In short: as §1

SMILES	IC50 [1]	IC50 [2]	IC50 [3]
COCc1cc(-c2[nH]c3ccc(C4CCN(CC(=O)N(C)C)CC4)cc3c2C(C)C)cn(C)c1=O [Example 351, 2-(4-(3-isopropyl-2-(5-(methoxymethyl)-1-methyl-6-oxo-1,6-dihydropyridin-3-yl)-1H-indol-5-yl)piperidin-1-yl)-N,N-dimethylacetamide]	0.0785 µM	0.135 µM	11.9 µM
CC(C)c1c(-c2ccc(=O)n(C)c2)[nH]c2ccc(C3CCN(C4CCOC4)CC3)cc12 (stereo not drawn) [Example 177, 5-(3-isopropyl-5-(1-(tetrahydrofuran-3-yl)piperidin-4-yl)-1H-indol-2-yl)-1-methylpyridin-2(1H)-one]	0.154 µM	0.0519 µM	9.21 µM
CNC(=O)CN1CCC(c2ccc3[nH]c(-c4cc(C)c(=O)n(C)c4C)c(C(C)C)c3c2)CC1 [Example 139, 2-(4-(3-isopropyl-2-(1,2,5-trimethyl-6-oxo-1,6-dihydropyridin-3-yl)-1H-indol-5-yl)piperidin-1-yl)-N-methylacetamide]	0.0154 µM	0.0042 µM	10.4 µM
CC(C)c1c(-c2ccc(=O)n(CC(C)(C)O)c2)[nH]c2ccc(C3CCNCC3)cc12 [Example 48, 1-(2-hydroxy-2-methylpropyl)-5-(3-isopropyl-5-(piperidin-4-yl)-1H-indol-2-yl)pyridin-2(1H)-one]	13.9 µM	≥ 50 µM	1.27 µM

Compounds with a lower IC50 [1], results first:

IC50 [1]	IC50 [2]	IC50 [3]	SMILES
0.005 µM	0.0049 µM	5.8 µM	Cc1c(-c2[nH]c3ccc(C4CCN(CC5CCOCC5)CC4)cc3c2C(C)C)cn(C)c(=O)c1Cl [Example 93, 3-chloro-5-(3-isopropyl-5-(1-((tetrahydro-2H-pyran-4-yl)methyl)piperidin-4-yl)-1H-indol-2-yl)-1,4-dimethylpyridin-2(1H)-one]
0.0038 µM	0.0041 µM	3.04 µM	Cc1cc(-c2[nH]c3ccc(C4CCN(Cc5cnn(C(C)C)c5)CC4)cc3c2C(C)C)cn(C)c1=O [Example 227]
0.0035 µM	0.0036 µM	1.65 µM	Cc1c(-c2[nH]c3ccc(C4CCNCC4)cc3c2C(C)C)cn(C)c(=O)c1C [Example 14, 5-(3-isopropyl-5-(piperidin-4-yl)-1H-indol-2-yl)-1,3,4-trimethylpyridin-2(1H)-one]
